# Assay results taken from patent US8586611B2 (priority 2005, dated 2013).
# Where two headings read alike, the source gives them in different places.
# Key:
# Format in all cases: in vivo
# [1] = test system: Erysiphe graminis f. sp. tritici; assay: Test E: wheat powdery mildew, spray the day before inoculation (disease rating, 100 = 100% disease control); details: spray the day before inoculation; for Test E disease rating (100 = 100% disease control, 0 = no disease control): compounds without asterisk (not 40 or 10 ppm)
# How it was run: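 Protective test: spores of E. graminis f. sp. tritici dusted on wheat seedlings one day after run-off spraying of test suspension (acetone/water with 250 ppm surfactant; 200 ppm = 500 g/ha). Ratings after 7 days in growth chamber at 20° C, 100 = full control, 0 = none, relative to controls.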
# [2] = test system: Phytophthora infestans; assay: whole plant or invertebrate; details: for Test D disease rating (100 = 100% disease control, 0 = no disease control): tomato late blight, spray 17 h after inoculation, compounds without asterisk (not 40 or 10 ppm)
# [3] = test system: Phytophthora infestans; assay: whole plant or invertebrate; details: for Test C disease rating (100 = 100% disease control, 0 = no disease control): tomato late blight, spray the day before inoculation, compounds without asterisk (not 40 or 10 ppm)
# [4] = test system: Plasmopara viticola; assay: Test B: grape downy mildew, spray 24 h after inoculation (disease rating, 100 = 100% disease control); details: spray 24 h after inoculation; for Test B disease rating (100 = 100% disease control, 0 = no disease control): compounds without asterisk (not 40 or 10 ppm)
# How it was run: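 This is a curative spray test, applied 24 h after inoculation. Compounds in 50/50 acetone–water with 250 ppm Trem 014 surfactant were sprayed to run-off on P. viticola-infected seedlings, with 200 ppm equating to 500 g/ha. Plants were kept 5 days in a 20 °C growth chamber, then 24 h humid, and scored 0–100 for disease control relative to controls.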
# [5] = test system: Pseudoperonospora cubensis; assay: Test F: cucumber downy mildew, DMSO/acetone/water test suspension, spray the day before inoculation (disease rating, 100 = 100% disease control); details: DMSO/acetone/water suspension, spray the day before inoculation; for Test F disease rating (100 = 100% disease control, 0 = no disease control): compounds without asterisk
# Excerpt: The test compounds were first dissolved in dimethyl sulfoxide (DMSO) in an amount equal to 4% of the final volume and then suspended at the desired concentration (in ppm) in acetone and purified water (30/70 mix by volume). The resulting test suspensions were then used in test F. Spraying a 250 ppm test suspension on the test plants was the equivalent of a rate of 250 g/ha.
# The test suspension was sprayed on cucumber seedlings. The following day the seedlings were inoculated with a spore suspension of Pseudoperonospora cubensis (the causal agent of cucumber downy mildew) and incubated in a saturated atmosphere at 20° C. for 24 h, and then moved to a growth chamber at 20° C. for 6 days, after which disease ratings were made.
# Results for Tests A-F are given in Table A. In the table, a rating of 100 indicates 100% disease control and a rating of 0 indicates no disease control (relative to the controls). A dash (-) indicates no test results.
SMILES,"Test E disease rating (100 = 100% disease control, 0 = no disease control) [1]","Test D disease rating (100 = 100% disease control, 0 = no disease control) [2]","Test C disease rating (100 = 100% disease control, 0 = no disease control) [3]","Test B disease rating (100 = 100% disease control, 0 = no disease control) [4]","Test F disease rating (100 = 100% disease control, 0 = no disease control) [5]","pest or weed control at 10 ppm ([1]; Blumeria graminis, topical, 168 h, tested at 10 ppm, read-out: Test E disease rating (100 = 100% disease control, 0 = no disease control))","pest or weed control at 10 ppm ([2]; Phytophthora infestans, in Solanum lycopersicum, topical, 96 h, read-out: Test D disease rating (100 = 100% disease control, 0 = no disease control))","pest or weed control at 10 ppm ([3]; Phytophthora infestans, in Solanum lycopersicum, 144 h, read-out: Test C disease rating (100 = 100% disease control, 0 = no disease control))","pest or weed control at 10 ppm ([4]; Plasmopara viticola, 144 h, tested at 10 ppm, read-out: Test B disease rating (100 = 100% disease control, 0 = no disease control))","pest or weed control at 10 ppm ([5]; Pseudoperonospora cubensis, topical, 168 h, compound marked as tested at 10 ppm, read-out: Test F disease rating (100 = 100% disease control, 0 = no disease control))"
Cc1cc(C(F)(F)F)nn1CC(=O)N1CCC(c2nc(C(=O)N(C)[C@H](C)c3ncc(Cl)cc3Cl)cs2)CC1 [compound 143],0%,99%,100%,69%,50%,–,–,–,–,–
Cc1ccc(C)c(CC(=O)N2CCC(c3nc(C(=O)N(C)[C@H](C)c4ccc(Br)cc4)cs3)CC2)c1 [compound 63],0%,93%,100%,100%,99%,–,–,–,–,–
"Cc1cc(C(F)(F)F)nn1CC(=O)N1CCC(c2nc(C(=O)N(C)C3CCCc4ccccc43)cs2)CC1 (stereo not shown) [Compound 188, N-methyl-2-[1-[[5-methyl-3-(trifluoromethyl)-1H-pyrazol-1-yl]acetyl]-4-piperidinyl]-N-(1,2,3,4-tetrahydro-1-naphthalenyl)-4-thiazolecarboxamide]",–,–,–,–,–,84%,99%,100%,99%,99%
Cc1ccc(C)c(CC(=O)N2CCN(c3nc(C(=O)N(C)[C@H](C)c4ccccc4)co3)CC2)c1 [compound 50],0%,99%,100%,55%,100%,–,–,–,–,–
Cc1ccc(C)c(CC(=O)N2CCC(c3nc(C(=O)N(C)C4CCCC(C)C4)cs3)CC2)c1 (stereo not shown) [compound 176],0%,24%,95%,15%,49%,–,–,–,–,–
Cc1ccc(C)c(CC(=O)N2CCC(c3nc(C(=O)N(C)[C@@H](C)c4ccccc4)cs3)CC2)c1 [compound 68],0%,16%,100%,47%,95%,–,–,–,–,–
C[C@H](c1ccccc1)N(C)C(=O)c1coc(C2CCN(C(=O)Nc3cccc(C(F)(F)F)c3)CC2)n1 [compound 158],0%,0%,95%,9%,90%,–,–,–,–,–
Cc1ccc(C)c(CC(=O)N2CCC(c3nc(C(=O)N(C)C4CCCCC4)cs3)CC2)c1 [compound 174],0%,63%,100%,68%,90%,–,–,–,–,–
COc1ccc(C)cc1NC(=S)N1CCC(c2nc(C(=O)N(C)[C@H](C)c3ccccc3)cs2)CC1 [compound 159],73%,91%,99%,95%,93%,–,–,–,–,–
Cc1ccc(C)c(CC(=O)N2CCC(c3nc(C(=O)N(C)[C@H](C)c4cccc(C(F)(F)F)c4)cs3)CC2)c1 [compound 67],0%,0%,68%,10%,99%,–,–,–,–,–
Cc1cc(C)n(CC(=O)N2CCC(c3nc(C(=O)N(C)[C@H](C)c4ccccc4)cs3)CC2)n1 [compound 65],0%,100%,100%,92%,100%,–,–,–,–,–
Cc1ccc(C)c(CC(=O)N2CCC(c3nc(C(=O)N(C)C4CCCc5c4ccc4ccccc54)cs3)CC2)c1 (stereo not shown) [compound 173],0%,0%,0%,0%,95%,–,–,–,–,–
C[C@H](c1ccccc1)N(C)C(=O)c1coc(N2CCN(C(=O)Cc3cccc(C(F)(F)F)c3)CC2)n1 [compound 55],0%,92%,100%,7%,47%,–,–,–,–,–
COc1ccc([C@@H](C)N(C)C(=O)c2csc(C3CCN(C(=O)Cc4cc(C)ccc4C)CC3)n2)cc1 [compound 59],21%,63%,98%,84%,93%,–,–,–,–,–
Cc1ccc(C)c(CC(=O)N2CCC(c3nc(C(=O)N(C)[C@H](C)c4ccc(F)cc4)cs3)CC2)c1 [compound 64],92%,95%,100%,100%,93%,–,–,–,–,–
Cc1ccc([C@@H](C)N(C)C(=O)c2csc(C3CCN(C(=O)Cc4cc(C)ccc4C)CC3)n2)cc1 [compound 62],29%,24%,92%,92%,43%,–,–,–,–,–
Cc1ccc(C)c(CC(=O)N2CCC(c3nc(C(=O)N(C)[C@H](C)c4ccc(Cl)cc4)cs3)CC2)c1 [compound 60],67%,42%,93%,95%,47%,–,–,–,–,–
C[C@H](c1ccccc1)N(C)C(=O)c1csc(C2CCN(C(=S)Nc3cccc(C(F)(F)F)c3)CC2)n1 [compound 160],0%,0%,40%,47%,50%,–,–,–,–,–
Cc1cc(C(F)(F)F)nn1CC(=O)N1CCC(c2nc(C(=O)N(C)C3CCCc4cc(O)ccc43)cs2)CC1 (stereo not shown) [compound 190],0%,99%,100%,8%,93%,–,–,–,–,–
CCc1cccc(CC(=O)N2CCC(c3nc(C(=O)N(C)[C@H](C)c4ccccc4)cs3)CC2)c1 [compound 119],89%,33%,99%,95%,100%,–,–,–,–,–
